# Experimental data: ChEMBL document CHEMBL2113921, “Open Source Malaria Deposition 1. http://malaria.ourexperiment.org” (2013)
# Active and inactive are the calls of the source. No cut-off for these calls is given here.
# Assays:
# Plasmodium falciparum [1] = assay: OSM: Inhibition of Plasmodium falciparum 3D7 growth using a SYBR green I fluorescence based assay. Dose response curves were generated comprising of 8 points using a 2-fold serial dilution for the maximum final concentration of 1000 nM. Ralph Group, Bio21.; assay type: functional, organism-based
# [2] = OSM: Microsomal stability: 0.5 uM substrate, 0.4 mg/mL protein, NADPH cofactor). Analysed by LC/MS. In vitro CLint (uL/min/mg protein).; assay type: ADME, Microsome; conditions: human, microsomes
# [3] = OSM: Microsomal stability: 0.5 uM substrate, 0.4 mg/mL protein, NADPH cofactor. Analysed by LC/MS. Degradation half life (min).; assay type: ADME, Microsome; conditions: human, microsomes
# [4] = OSM: Kinetic solubility pH 6.5 isotonic phosphate buffer.; assay type: ADME
# [5] = OSM: Microsomal stability: 0.5 uM substrate, 0.4 mg/mL protein, NADPH cofactor. Analysed by LC/MS. Degradation rate classification.; assay type: ADME, Microsome; conditions: human, microsomes
# Plasmodium falciparum [6] = assay: OSM: Inhibition of Plasmodium falciparum 3D7 growth. IC50 values determined from 21 point dose response curves. Avery Group Griffith.; assay type: functional, organism-based
# Plasmodium falciparum [7] = assay: OSM: Inhibition of Plasmodium falciparum 3D7 growth using a SYBR green I fluorescence based assay. GSK Tres Cantos.; assay type: functional, organism-based
# Plasmodium falciparum [8] = assay: OSM: Percent inhibition of Plasmodium falciparum 3D7 growth at 80 uM. Avery Group Griffith.; assay type: functional
# Plasmodium falciparum [9] = assay: OSM: Percent inhibition of Plasmodium falciparum 3D7 growth at 40 uM. Avery Group Griffith.; assay type: functional
# [10] = OSM: HEK293 cytotoxicity assay. IC50 values determined from 21 point dose response curves. Avery Group Griffith.; assay type: toxicity, cell-based; conditions: human, HEK293 cells
# Plasmodium falciparum K1 [11] = assay: OSM: Inhibition of Plasmodium falciparum K1 growth. IC50 values determined from 21 point dose response curves. Avery Group Griffith.; assay type: functional, organism-based
# [12] = OSM: HEK293 cytotoxicity assay. Duplicate point single experiment at 120 uM. Avery Group, Griffith.; assay type: toxicity, cell-based; conditions: human, HEK293 cells; read-out: Inhibition
# Plasmodium falciparum [13] = assay: OSM: Late stage gametocytes. IC50 values determined from 21 point dose response curves. Avery Group Griffith.; assay type: functional, organism-based; conditions: Pfs16-GFP transgenic NF54
# [14] = OSM: Kinetic solubility pH 2 0.01 M HCl ug/mL.; assay type: ADME
# Plasmodium berghei = assay: OSM: Mice are infected intravenously with parasitized red blood cells on day 0 (2 x 10^7 parasitized erythrocytes per ml). Experimental mice are generally treated at 4, 24, 48, and 72 hours post-infection with an oral dose of the compound (50 mg/kg, 4-day test by Peters) and are compared to an infected control group for reduction in parasitaemia on day 4 (96 hours post-infection) as a percentage.; assay type: functional, organism-based; conditions: Mus musculus; Swiss; Plasma
# Plasmodium falciparum K1 [15] = assay: OSM: CSIR assay K1: Compounds were tested for inhibition of Plasmodium falciparum growth using a SYBR green I fluorescence based assay.; assay type: functional, organism-based
# [16] = molecular target: Voltage-gated inwardly rectifying potassium channel KCNH2 (Homo sapiens, UniProt Q12809); assay: OSM: hERG, IC50 uM (Essen Bioscience): IonWorks patch clamp electrophysiology. 8 point concentration-response curves were generated using 3-fold serial dilutions from the maximum final assay concentration of 33 uM.; assay type: functional
# Plasmodium falciparum [17] = assay: OSM: CSIR assay 3D7: Compounds were tested for inhibition of Plasmodium falciparum growth using a SYBR green I fluorescence based assay.; assay type: functional, organism-based
# Plasmodium falciparum [18] = assay: OSM: Percent inhibition of Plasmodium falciparum 3D7 growth at 100 uM. Avery Group Griffith.; assay type: functional
# Chain of Voltage-gated inwardly rectifying potassium channel KCNH2 (Q12809 whole entry): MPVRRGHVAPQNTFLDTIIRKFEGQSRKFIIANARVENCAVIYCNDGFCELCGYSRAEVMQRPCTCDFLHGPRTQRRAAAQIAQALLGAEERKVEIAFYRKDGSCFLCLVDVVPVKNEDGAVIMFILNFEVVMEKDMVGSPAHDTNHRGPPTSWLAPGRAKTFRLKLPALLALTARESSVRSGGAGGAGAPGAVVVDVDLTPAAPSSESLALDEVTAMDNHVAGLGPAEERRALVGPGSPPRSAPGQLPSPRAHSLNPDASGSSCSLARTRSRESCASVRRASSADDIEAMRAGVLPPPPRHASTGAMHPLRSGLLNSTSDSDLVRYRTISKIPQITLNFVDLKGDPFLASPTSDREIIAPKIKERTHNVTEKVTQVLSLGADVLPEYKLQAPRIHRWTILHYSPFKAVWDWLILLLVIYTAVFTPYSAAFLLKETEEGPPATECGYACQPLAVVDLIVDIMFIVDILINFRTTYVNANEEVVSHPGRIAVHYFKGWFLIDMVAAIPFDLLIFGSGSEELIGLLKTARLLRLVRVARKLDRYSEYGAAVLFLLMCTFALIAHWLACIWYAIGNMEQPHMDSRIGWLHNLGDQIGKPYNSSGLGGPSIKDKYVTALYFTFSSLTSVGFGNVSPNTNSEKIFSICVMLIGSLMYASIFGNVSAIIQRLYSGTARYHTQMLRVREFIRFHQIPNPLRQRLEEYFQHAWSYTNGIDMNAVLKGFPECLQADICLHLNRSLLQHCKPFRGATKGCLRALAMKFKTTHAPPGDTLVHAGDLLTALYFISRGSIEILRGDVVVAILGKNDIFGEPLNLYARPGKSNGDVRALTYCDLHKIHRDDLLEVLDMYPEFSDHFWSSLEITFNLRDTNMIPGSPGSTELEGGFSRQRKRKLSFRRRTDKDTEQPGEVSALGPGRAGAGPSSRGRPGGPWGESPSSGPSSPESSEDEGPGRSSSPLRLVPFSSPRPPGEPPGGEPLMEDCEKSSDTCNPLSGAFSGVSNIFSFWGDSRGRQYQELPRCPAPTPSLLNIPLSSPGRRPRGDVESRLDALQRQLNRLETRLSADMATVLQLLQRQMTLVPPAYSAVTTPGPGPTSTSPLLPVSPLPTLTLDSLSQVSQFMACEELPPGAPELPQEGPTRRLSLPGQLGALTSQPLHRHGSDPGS
smiles,measurement,setting,value
Cc1cc(/C=C2\S/C(=N\c3ccccc3)N(C3CCCC3)C2=O)c(C)n1-c1ccc(C(F)(F)F)cc1,IC50,Plasmodium falciparum [1],520 nM
same,microsomal CLint at 0.5 µM,[2],14 µL/min/mg
same,half-life at 0.5 µM,[3],2.02 h
same,solubility kinetic,[4],5 µg/mL
same,Relative metabolic rate,[5],Moderate
same,IC50,Plasmodium falciparum [6],34 nM
same,IC50,Plasmodium falciparum [7],276 nM
Cc1c(NC(=O)CNC(=O)c2ccccc2)c(=O)n(-c2ccccc2)n1C,inhibition at 80 µM,Plasmodium falciparum [8],0%
same,IC50,Plasmodium falciparum [7],> 5000 nM
Cc1cc(C(=O)CCC(N)=O)c(C)n1-c1ccc(F)cc1,inhibition at 40 µM,Plasmodium falciparum [9],61%
CCc1nc(N)nc(N)c1-c1ccc(Cl)cc1 [PYRIMETHAMINE],IC50,[10],13900 nM
same,IC50,Plasmodium falciparum [6],8.95 nM
same,IC50,Plasmodium falciparum K1 [11],11900 nM
CNC(=O)CN(C)C(=O)c1cc(C)n(-c2ccc(Br)cc2)c1C,inhibition at 40 µM,Plasmodium falciparum [9],70%
Cc1cc(/C=C2\S/C(=N\c3ccccc3)NC2=O)c(C)n1-c1ccc(F)cc1,microsomal CLint at 0.5 µM,[2],15 µL/min/mg
same,half-life at 0.5 µM,[3],1.53 h
same,solubility kinetic,[4],1 µg/mL
same,Relative metabolic rate,[5],Moderate
same,cytotoxicity at 120 µM,[12],25%
same,IC50,Plasmodium falciparum [6],176 nM
same,IC50,Plasmodium falciparum K1 [11],361 nM
Cc1cc(/C=C2\S/C(=N\c3ccccc3)NC2=O)c(C)n1-c1cc(C(F)(F)F)cc(C(F)(F)F)c1,IC50,Plasmodium falciparum [1],5 nM
same,microsomal CLint at 0.5 µM,[2],< 7 µL/min/mg
same,half-life at 0.5 µM,[3],> 4.17 h
same,solubility kinetic,[4],4 µg/mL
same,Relative metabolic rate,[5],Low
same,IC50,Plasmodium falciparum [13],3 nM
same,IC50,Plasmodium falciparum [6],1 nM
same,IC50,Plasmodium falciparum [7],7 nM
Cc1cc(C(=O)OCC(=O)Nc2c(C)n(C)n(-c3ccccc3)c2=O)c(C)n1-c1ccc(F)cc1,microsomal CLint at 0.5 µM,[2],60 µL/min/mg
same,half-life at 0.5 µM,[3],0.483 h
same,solubility kinetic,[4],12.5 µg/mL
same,Relative metabolic rate,[5],Moderate
same,solubility kinetic,[14],12.5 µg/mL
same,Reduced_parasitemia,Plasmodium berghei,inactive
same,cytotoxicity at 120 µM,[12],20%
same,IC50,Plasmodium falciparum [6],345 nM
same,IC50,Plasmodium falciparum [7],245 nM
same,IC50,Plasmodium falciparum K1 [11],152 nM
Cc1ccc(-n2c(C)cc(/C=C3\S/C(=N\c4ccccc4)NC3=O)c2C)cc1,IC50,Plasmodium falciparum [1],9 nM
same,microsomal CLint at 0.5 µM,[2],< 7 µL/min/mg
same,half-life at 0.5 µM,[3],> 4.08 h
same,solubility kinetic,[4],2 µg/mL
same,Relative metabolic rate,[5],Low
same,IC50,Plasmodium falciparum [6],15 nM
same,IC50,Plasmodium falciparum [7],28 nM
Cc1cc(/C=C2\S/C(=N\c3ccccc3)NC2=O)c(C)n1-c1ccc(C(F)(F)F)cc1,IC50,Plasmodium falciparum [1],205 nM
same,microsomal CLint at 0.5 µM,[2],< 7 µL/min/mg
same,half-life at 0.5 µM,[3],> 4.17 h
same,solubility kinetic,[4],3 µg/mL
same,Relative metabolic rate,[5],Low
same,IC50,Plasmodium falciparum [13],4 nM
same,IC50,Plasmodium falciparum [6],2 nM
same,IC50,Plasmodium falciparum [7],29 nM
CCN(CC)CCCC(C)Nc1ccnc2cc(Cl)ccc12 (stereo not given) [CHLOROQUINE],IC50,Plasmodium falciparum K1 [15],235 nM
same,cytotoxicity at 120 µM,[12],100%
same,IC50,Plasmodium falciparum K1 [11],266 nM
CC(=O)N(C1=NC(=O)/C(=C/c2cc(C)n(-c3ccc(F)cc3)c2C)S1)c1ccccc1,Relative metabolic rate,[5],Rapid non-NADPH acetamide hydrolysis to OSM-S-10
same,IC50,Plasmodium falciparum [13],28 nM
same,cytotoxicity at 120 µM,[12],75%
same,IC50,Plasmodium falciparum [6],47 nM
same,IC50,Plasmodium falciparum [7],47 nM
same,IC50,Plasmodium falciparum K1 [11],66 nM
Cc1cc(C(=O)OCC(N)=O)c(C)n1-c1ccc(F)cc1,microsomal CLint at 0.5 µM,[2],29 µL/min/mg
same,half-life at 0.5 µM,[3],0.983 h
same,solubility kinetic,[4],50 µg/mL
same,Relative metabolic rate,[5],Moderate
same,IC50,Plasmodium falciparum K1 [15],641 nM
same,solubility kinetic,[14],50 µg/mL
same,Reduced_parasitemia,Plasmodium berghei,inactive
same,IC50,[16],> 33000 nM
same,cytotoxicity at 120 µM,[12],20%
same,IC50,Plasmodium falciparum [17],581 nM
same,IC50,Plasmodium falciparum [6],404 nM
same,IC50,Plasmodium falciparum [7],818 nM
same,IC50,Plasmodium falciparum K1 [11],375 nM
Cc1cc(/C=C2\SC(=Nc3ccccc3)NC2=O)c(C)n1-c1ccccc1,IC50,Plasmodium falciparum [1],11 nM
same,Reduced_parasitemia,Plasmodium berghei,inactive
same,IC50,[16],> 33000 nM
same,IC50,Plasmodium falciparum [6],26 nM
same,IC50,Plasmodium falciparum [7],36 nM
Cc1cc(CN2CCCC2)c(C)n1-c1ccc(F)cc1,inhibition at 40 µM,Plasmodium falciparum [9],96%
COc1cc(C)c2c(Oc3cccc(C(F)(F)F)c3)c(OC)cc(NC(C)CCCN)c2n1 (stereo not given) [TAFENOQUINE],IC50,Plasmodium falciparum [13],2800 nM
Cc1cc(/C=C2\S/C(=N\c3ccccc3)N(c3ccccc3)C2=O)c(C)n1-c1cccc(F)c1,IC50,Plasmodium falciparum K1 [15],> 5000 nM
same,IC50,Plasmodium falciparum [17],3200 nM
CC[C@H](C)[C@H](NC(=O)[C@H]([C@@H](C)CC)N(C)C(C)=O)C(=O)N[C@H](C(=O)N[C@@H](CC(C)C)C(=O)[C@@]1(C)CO1)[C@@H](C)O [EPOXOMYCIN],IC50,[10],33.6 nM
same,IC50,Plasmodium falciparum [13],0.3 nM
same,IC50,Plasmodium falciparum [6],4.2 nM
same,IC50,Plasmodium falciparum K1 [11],2.8 nM
O=C1N=C(Nc2ccccc2)S/C1=C\c1ccccc1,IC50,Plasmodium falciparum [1],> 1000 nM
same,inhibition at 100 µM,Plasmodium falciparum [18],100%
same,IC50,Plasmodium falciparum [7],> 5000 nM
COc1ccc(-c2cc3ncnc(Oc4ccc(S(=O)(=O)N5CCOCC5)cc4)c3s2)cc1,inhibition at 40 µM,Plasmodium falciparum [9],80%
Cc1cc(C(=O)NCC(N)=O)c(C)n1-c1ccc(F)cc1,IC50,Plasmodium falciparum [1],> 1000 nM
same,inhibition at 80 µM,Plasmodium falciparum [8],25%
same,IC50,Plasmodium falciparum [7],> 5000 nM
Cc1cc(C(=O)Nc2c(C)n(C)n(-c3ccccc3)c2=O)c(C)n1-c1ccc(F)cc1,inhibition at 80 µM,Plasmodium falciparum [8],100%
Cc1cccc(-n2c(C)cc(C(=O)N(C)CC(=O)Nc3cc(C)on3)c2C)c1,inhibition at 40 µM,Plasmodium falciparum [9],85%
COc1ccc2nc3cc(Cl)ccc3c(Nc3cc(CN4CCCC4)c(O)c(CN4CCCC4)c3)c2n1 [PYRONARIDINE],IC50,Plasmodium falciparum [13],2960 nM
same,IC50,Plasmodium falciparum [6],3.2 nM
